“Also recorded” adds a separate entry of the source.
Tests used:
[1] = test system: Compound 1 induced salivation; assay: Fesoterodine dose-response antagonistic effect on Compound 1 induced salivation in anaesthetized rats; assay type: in vivo, Sprague Dawley rats
Description: (§1) An in vivo primary pharmacology study evaluating the fesoterodine fumarate dose-response antagonistic effect on Compound 1 induced salivation in anaesthetized male Sprague Dawley rats was conducted. […] Intravenous fesoterodine doses were administered at […]. Fesoterodine was dosed 10 minutes prior to dosage of Compound 1. All animals were normal with no observed abnormality detected in clinical signs or behavior. Salivation was measured by using oral dry swab in anesthetized rats with the calculated difference between the dry swab weight and the wet swab weight indicating the weight of saliva produced. Samples were collected post-dosing for one hour at 10-minute intervals.

MPTP-Induced Dyskinesia = assay: L-dopa-induced dyskinesia in MPTP-lesioned macaques; assay type: in vivo, cynomolgus macaques
Source text: It is now used in non-human primates to model primary parkinsonian motor symptom phenotypes and subsequent response to therapies such as L-dopa including dyskinesia-thus it can be used as foundational model for LID. See Huat 2012. (Huot P, Johnston T H, Koprich J B, Fox S H, Brotchie J M. L-DOPA pharmacokinetics in the MPTP-lesioned macaque model of Parkinson's disease. Neuropharmacology. 2012 October; 63(5):829-36.) Having both face validity and construct validity, the MPTP non-human primate model is considered the animal model of PD motor symptoms with the highest translational relevance.
A study was conducted in seven female MPTP-lesioned cynomolgus macaques that received chronic repeat treatment with L-dopa and in response manifested stable and reproducible dyskinesia that was choreic and dystonic in nature. Macaque behaviors were assessed following a single 1 mg/kg dose of Compound 1 or vehicle in combination with high-dose of L-dopa delivered as Madopar™ with a dose titrated for LID symptoms in each test animal. The ‘on time’ therapeutic effects and abnormal LID movements were assessed for 6 hours following administration of L-dopa. A single Compound 1 oral dose of 1 mg/kg or vehicle was administered at the same time as L-dopa at the start of behavioral observations. All animals received all treatments in a cross-over design with a minimum of 72 hours between repeat treatments in each animal. The therapeutic and LID behaviors were scored by trained raters supervised by a neurologist in a blinded fashion using high-definition video recordings and the non-human primate dyskinesia rating scale. See Fox 2012. (Fox S H, Johnston T H, Li Q, Brotchie J, Bezard E. A critique of available scales and presentation of the Non-Human Primate Dyskinesia Rating Scale. Mov Disord. 2012 Sep. 15; 27(11):1373-8.)

[2] = Clinical observations during 7-day oral dosing in beagle dogs; conditions: Group 1: Compound 1 1.5 mg/kg/day PO, individual dog, 1.5 mg/kg/day
[3] = Single ascending dose study with or without fesoterodine fumarate: safety and tolerability; assay type: in vivo, healthy adult volunteers
Description: Compound 1 was administered in a single ascending dose (SAD) study conducted in approximately 54 healthy adult volunteers to investigate Compound 1 pharmacokinetics, safety, and tolerability. The study was conducted in two groups.
Group 1 evaluated multiple dose cohorts administered Compound 1 in a single ascending dose (SAD) manner to establish a maximum tolerated dose (MTD) using the doses described in Table 10.
MTD was established at the dose which produced mild to moderate cholinergic adverse effects. Cholinergic effects were monitored for each dose, including pupillometry and salivation.
Group 2 evaluated tolerability of Compound 1 at Group 1 MTD with or without fesoterodine fumarate co-administration. Subjects received 8 mg of fesoterodine fumarate tablet or matched placebo tablet 4 hours prior to administration of 40 mg of Compound 1.

[4] = test system: Amphetamine-Induced Hyperlocomotion; assay: Compound 1 effect on amphetamine-induced hyperlocomotion (open field); assay type: in vivo, mice; conditions: for average (mean) centimeters traveled over 30 minutes: open field, vehicle cohort 7500 cm
Description: The hyperdopaminergic state underlying LID was modeled in naïve male wild-type c57/B16 mice by administration of d-amphetamine, a drug which rapidly elevates synaptic dopamine levels.
A single dose of 3 mg/kg of intraperitoneal (IP) d-amphetamine was administered to 32 male wild-type c57/B16 mice at approximately 8-weeks of age. Subsequently, the animals were subdivided into 3 groups and co-administered either a single dose of intraperitoneal vehicle only, Compound 1 at 0.3 mg/kg, or Compound 1 at 1 mg/kg. The locomotor behavior of the animals in an open field chamber (44 cm×44 cm×20 cm dimension) was monitored using a video tracking system (Noldus EthoVision v15). Over 30 minutes, the average (mean) centimeters traveled (+standard deviation) identified were: • 7500 cm (±314.9) in vehicle cohort • 5141 cm (±805.6) in the Compound 1 0.3 mg/kg cohort ([…] one-way ANOVA followed by Tukey's multiple comparison) • 2008 cm (±406.2) in the Compound 1 1.0 mg/kg cohort (p <0.001)

[5] = Post-procedure plasma exposure (salivation study); assay type: in vivo, Sprague Dawley rats; conditions: male, Sprague Dawley, rat, in vivo, 1.5 mg/kg, Plasma Concentration 1-Hour Post-procedure (mean value), Compound 1
Description: as §1
At the end of the study period, plasma samples were collected to measure exposure of Compound 1, fesoterodine fumarate, and fesoterodine active metabolite 5-hydroxymethyl tolterodine (5-HMT), also referred to as desfesoterodine, is summarized in Table 2.

[6] = Compound 1 (1.5 mg/kg) IV alone
[7] = Compound 1 1 mg/kg PO with high-dose L-dopa, vs vehicle
[8] = Group 2: 40 mg Compound 1, 4 hours after 8 mg fesoterodine fumarate tablet or placebo tablet

Question: Which results are given for `Cc1noc([C@@]23CNC[C@@H]2C3)n1` [Compound 1, 1-(3-methyl-[1,2,4]oxadiazol-5-yl)-(1R,5R)-3-aza-bicyclo[3.1.0]hexane]?
Answer: Salivation (mg) (mean value), 10 min [1, 6]: 414.44 mg; Salivation (mg) (mean value), 20 min [1, 6]: 126.95 mg; Salivation (mg) (mean value), 30 min [1, 6]: 59.21 mg; Salivation (mg) (mean value), 40 min [1, 6]: 61.22 mg; Salivation (mg) (mean value), 50 min [1, 6]: 24.79 mg; Salivation (mg) (mean value), 60 min [1, 6]: 22.15 mg; Salivation (mg) (mean value), Total [1, 6]: 708.76 mg; effect on salivation compared to 0.9% saline vehicle control ([1]; Compound 1 IV alone): significant effect in increase in salivation; anti-parkinsonian benefit of L-DOPA and overall duration of on-time (MPTP-Induced Dyskinesia; Compound 1 1 mg/kg PO with high-dose L-dopa): no reduction; decrease in the duration of ‘bad’ on-time (on-time associated with disabling dyskinesia) (MPTP-Induced Dyskinesia; [7]): 41%; increase in the duration of ‘good’ on-time (lack of, or only non-disabling dyskinesia) (MPTP-Induced Dyskinesia; [7]): 143%; reduction of median levels of dyskinesia during the 0-1 h period (MPTP-Induced Dyskinesia; Compound 1 1 mg/kg PO with high-dose L-dopa, vs vehicle, P<0.001): 91%; reduction of median levels of dyskinesia cumulated over the 0-2 h period (MPTP-Induced Dyskinesia; Compound 1 1 mg/kg PO with high-dose L-dopa, vs vehicle, P=0.0156): 42%; median levels of dyskinesia during the 0-1 h period (MPTP-Induced Dyskinesia; Compound 1 1 mg/kg PO with high-dose L-dopa, vehicle 11): 1; median levels of dyskinesia cumulated over the 0-2 h period (MPTP-Induced Dyskinesia; Compound 1 1 mg/kg PO with high-dose L-dopa, vehicle 33): 19; animals with a robust reduction in LID (MPTP-Induced Dyskinesia; Compound 1 1 mg/kg PO, seven animals in final analyses): six of the seven animals; Clinical Observation ([2]; day 1): For D1005, ptyalism was found 1 hr 20 min after dosing on day 1; also recorded: For D1001, soft feces were found 1 hr 45 min after dosing on day 1; also recorded: For D1005, about 4 mL white foamy mucoid vomitus was found 40 min; also recorded: For D1005, soft feces was found 1 hr after dosing on day 1; also recorded: For D1005, about 8 mL yellow foamy mucoid vomitus was found 1 hr; Clinical Observation ([2]; day 3): For D1005, 20 mL chyme was found 45 min after dosing on day 3; also recorded: For D1005, soft feces was found 80 min after dosing on day 3; also recorded: For D1005, 20 mL liquid feces was found 3.5 hr after dosing on day 3; also recorded: For D1001, ptyalism was found 2 hr after dosing on day 3. 8 hr recover; also recorded: For D1001, 20 mL chyme and ptyalism were found 3.5 hr after dosing; also recorded: For D1002, 10 mL chyme was found 55 min after dosing on day 3; also recorded: For D1002, 10 mL liquid feces and ptyalism were found 80 min after; also recorded: For D1002, ptyalism was found 2 hr after dosing on day 3. 8 hr recover; also recorded: For D1003, ptyalism was found 2 hr after dosing on day 3. 8 hr recover; also recorded: For D1003, 10 mL chyme, 5 mL liquid feces and ptyalism were found; also recorded: For D1003, 10 mL liquid feces and ptyalism were found 4 hr after; also recorded: For D1004, 15 mL chyme and soft feces were found 55 min after dosing; also recorded: For D1004, 2 mL liquid feces and ptyalism were found 80 min after; also recorded: For D1004, 20 mL chyme was found 90 min after dosing on day 3; also recorded: For D1004, ptyalism was found 2 hr after dosing on day 3. 8 hr recover; also recorded: For D1001, 10 mL chyme was found 55 min after dosing on day 3; Clinical Observation ([2]; day 4): For D1005, 15 mL chyme was found 40 min after dosing on day 4; also recorded: For D1005, 10 mL chyme and 10 mL liquid feces were found 2 hr after; also recorded: For D1001, 15 mL chyme was found 2 hr after dosing on day 4; also recorded: For D1001, ptyalism and 15 mL liquid feces were found 3 hr after; also recorded: For D1002, 15 mL chyme and 10 mL liquid feces were found 2 hr after; also recorded: For D1002, ptyalism and 5 mL liquid feces were found 3 hr after dosing; also recorded: For D1003, soft feces was found 3 hr after dosing on day 4; also recorded: For D1004, ptyalism was found 2 hr after dosing on day 4; also recorded: For D1004, 8 mL liquid feces was found 3 hr after dosing on day 4; also recorded: For D1004, soft feces was found 220 min after dosing on day 4; Clinical Observation ([2]; day 5): For D1003, 5 mL chyme was found 2 hr after dosing on day 5.; Clinical Observation ([2]; day 6): For D1005, 15 mL chyme, 30 mL liquid feces and ptyalism were found; also recorded: For D1005, 15 mL chyme was found 2 hr after dosing on day 6; also recorded: For D1001, ptyalism was found 30 min after dosing on day 6. 8 hr; also recorded: For D1001, ptyalism and soft feces were found 1 hr after dosing on day 6; also recorded: For D1002, ptyalism was found 30 min after dosing on day 6. 8 hr; also recorded: For D1002, 10mL liquid feces and ptyalism were found 1 hr after dosing; also recorded: For D1002, 20 mL chyme, 10 mL liquid feces and ptyalism were found; also recorded: For D1003, ptyalism was found 30 min after dosing on day 6. 8 hr; also recorded: For D1003, 30 mL liquid feces, ptyalism and tremor were found 2 hr; also recorded: For D1003, 10 mL chyme was found 3 hr after dosing on day 6; also recorded: For D1004, 10 mL liquid feces and ptyalism were found 1 hr after; also recorded: For D1004, 5 mL chyme was found 3 hr after dosing on day 6; Clinical Observation ([2]; day 7): For D1005, about 8 mL liquid feces was found 2 hr after dosing on day 7; also recorded: For D1001, ptyalism was found 1 hr after dosing on day 7. 4 hr recover; also recorded: For D1001, miosis was found 1 hr after dosing on day 7. 8 hr recover; also recorded: For D1001, about 5 mL liquid feces and about 3 mL yellow liquid; also recorded: For D1002, ptyalism was found 1 hr after dosing on day 7. 4 hr recover; also recorded: For D1003, ptyalism was found 1 hr after dosing on day 7. 4hr recover; also recorded: For D1003, about 10 mL liquid feces was found 2 hr after dosing on day 7; also recorded: For D1004, ptyalism was found 1 hr after dosing on day 7. 4 hr recover; also recorded: For D1004, about 3 mL yellow liquid vomitus was found 1 hr after; subjects who reported TEAEs ([3]; Group 1, 1 mg, placebo 50.0%): ~33.3%; subjects who reported TEAEs ([3]; Group 1, 3 mg, placebo 50.0%): About 50.0%; subjects who reported TEAEs ([3]; Group 1, 10 mg, placebo 50.0%): About 50.0%; subjects who reported TEAEs ([3]; Group 1, 20 mg, placebo 50.0%): About 50.0%; subjects who reported TEAEs ([3]; Group 1, 40 mg, placebo 50.0%): ~83.3%; subjects who reported TEAEs ([3]; Group 1, 60 mg, placebo 50.0%): ~100%; deaths, serious TEAEs, discontinuations ([3]; Group 1, 1-60 mg single oral dose): no deaths or serious TEAEs reported, and no subjects discontinued the study due to a TEAE; total treatment-emergent adverse events (TEAEs) ([3]; Group 1, 36 subjects who received any dose of compound 1 (1-60 mg single oral)): 95; subjects with TEAEs (number of the 36 subjects) ([3]; Group 1, any dose of compound 1): 22; subjects with TEAEs ([3]; Group 1, any dose of compound 1, of the 36 subjects): 61.6%; day of onset of TEAEs (Day 1 = day of dosing) [3, 8]: 1 days; deaths, serious or severe TEAEs [3, 8]: no deaths, serious or severe TEAEs reported; most frequent TEAEs observed [3, 8]: salivary hypersecretion and dizziness; number of TEAEs reported [3, 8]: 9; subjects who reported TEAEs [3, 8]: 100.0%; MTD of Compound 1 when administered alone ([3]; single oral dose, healthy subjects): 40 mg; safety and tolerability ([3]; single oral doses ranging from 1 mg to 40 mg, healthy subjects): generally safe and well tolerated; effect on hyperdopaminergic-mediated motor behavior ([4]; 0.3 and 1 mg/kg IP, d-amphetamine-treated mice): reverses hyperdopaminergic-mediated motor behavior in a dose-dependent manner; average (mean) centimeters traveled over 30 minutes ([4]; Compound 1 0.3 mg/kg IP co-administered with d-amphetamine 3 mg/kg IP, p<0.5): 5141 cm; average (mean) centimeters traveled over 30 minutes ([4]; Compound 1 1.0 mg/kg IP co-administered with d-amphetamine 3 mg/kg IP, p <0.001): 2008 cm; concentration at 1 h [5]: 608 ng/mL
